In patent US20080004253A1, “Thiazolopyrimidine modulators of TRPV1” (priority 2006, published 2008) one finds IC50 data, which are given here for 27 molecules.

The target of one experiment is T1, human TRPV1 (Homo sapiens, UniProt Q8NER1).
T1 construct: expressed in transfected cells; host or cells: HEK293 (hTRPV1/HEK293), zeocin selection
The experiment can be described thus: Functional assay: block of capsaicin-induced Ca2+ influx, human assay (hTRPV1/HEK293, FLIPR). The experiment is classed as cell-based. To be noted: hTRPV1/HEK293 cells, 150 nM capsaicin challenge, Fluo-3 fluorescence; mean; > value = solubility limit in assay medium. In a few lines:
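HEK293 cells stably expressing human TRPV1, fluo3-loaded, preincubated 30 min with compound (serial 3-fold dilutions from 10 μM, duplicate) in 20 μM Ca2+ buffer. Capsaicin response taken as fluo3 fluorescence change before vs 100 s after agonist; IC50 by non-linear regression, mean values; free base or TFA salt.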

A further experiment concerns the target T2, rat TRPV1 (Rattus norvegicus, UniProt O35433).
T2 construct: expressed in transfected cells; host or cells: HEK293 (rTRPV1/HEK293), geneticin selection
The experiment can be described thus: Functional assay: block of capsaicin-induced Ca2+ influx, rat assay (rTRPV1/HEK293, FLIPR). The experiment is classed as cell-based. As to conditions: rTRPV1/HEK293 cells, capsaicin challenge, Fluo-3 fluorescence; mean; > value = solubility limit in assay medium. The method, boiled down:
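HEK293 cells expressing rat TRPV1, loaded with fluo3 and preincubated 30 min with compound in 20 μM Ca2+ buffer before capsaicin challenge. Block read as fluo3 fluorescence change over 100 s after agonist, 3-fold series from 10 μM in duplicate. IC50 by non-linear regression, mean values.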

T1 sequence (Q8NER1 whole entry): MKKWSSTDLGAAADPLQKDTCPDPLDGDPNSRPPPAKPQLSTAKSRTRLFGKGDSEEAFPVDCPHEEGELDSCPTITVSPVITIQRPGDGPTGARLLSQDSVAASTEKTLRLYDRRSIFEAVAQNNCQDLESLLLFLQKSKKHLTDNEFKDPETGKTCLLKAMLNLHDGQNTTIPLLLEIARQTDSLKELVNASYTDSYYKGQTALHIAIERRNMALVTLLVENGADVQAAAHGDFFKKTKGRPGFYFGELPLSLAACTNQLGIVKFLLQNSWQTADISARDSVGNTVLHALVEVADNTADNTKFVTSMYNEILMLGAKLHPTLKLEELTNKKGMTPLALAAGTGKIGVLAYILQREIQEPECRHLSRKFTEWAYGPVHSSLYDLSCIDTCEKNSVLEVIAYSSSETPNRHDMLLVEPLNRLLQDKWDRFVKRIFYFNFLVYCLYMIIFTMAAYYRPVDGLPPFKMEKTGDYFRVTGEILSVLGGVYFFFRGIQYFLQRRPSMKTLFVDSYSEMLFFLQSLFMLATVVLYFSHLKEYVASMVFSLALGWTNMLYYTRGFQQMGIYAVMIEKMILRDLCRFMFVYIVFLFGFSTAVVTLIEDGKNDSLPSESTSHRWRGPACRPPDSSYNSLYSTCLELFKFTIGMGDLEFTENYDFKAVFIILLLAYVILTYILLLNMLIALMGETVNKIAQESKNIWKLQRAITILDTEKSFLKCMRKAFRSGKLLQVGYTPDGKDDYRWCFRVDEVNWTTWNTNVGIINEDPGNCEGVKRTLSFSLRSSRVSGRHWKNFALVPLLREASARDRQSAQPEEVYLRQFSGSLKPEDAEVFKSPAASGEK
T2 sequence (O35433 whole entry): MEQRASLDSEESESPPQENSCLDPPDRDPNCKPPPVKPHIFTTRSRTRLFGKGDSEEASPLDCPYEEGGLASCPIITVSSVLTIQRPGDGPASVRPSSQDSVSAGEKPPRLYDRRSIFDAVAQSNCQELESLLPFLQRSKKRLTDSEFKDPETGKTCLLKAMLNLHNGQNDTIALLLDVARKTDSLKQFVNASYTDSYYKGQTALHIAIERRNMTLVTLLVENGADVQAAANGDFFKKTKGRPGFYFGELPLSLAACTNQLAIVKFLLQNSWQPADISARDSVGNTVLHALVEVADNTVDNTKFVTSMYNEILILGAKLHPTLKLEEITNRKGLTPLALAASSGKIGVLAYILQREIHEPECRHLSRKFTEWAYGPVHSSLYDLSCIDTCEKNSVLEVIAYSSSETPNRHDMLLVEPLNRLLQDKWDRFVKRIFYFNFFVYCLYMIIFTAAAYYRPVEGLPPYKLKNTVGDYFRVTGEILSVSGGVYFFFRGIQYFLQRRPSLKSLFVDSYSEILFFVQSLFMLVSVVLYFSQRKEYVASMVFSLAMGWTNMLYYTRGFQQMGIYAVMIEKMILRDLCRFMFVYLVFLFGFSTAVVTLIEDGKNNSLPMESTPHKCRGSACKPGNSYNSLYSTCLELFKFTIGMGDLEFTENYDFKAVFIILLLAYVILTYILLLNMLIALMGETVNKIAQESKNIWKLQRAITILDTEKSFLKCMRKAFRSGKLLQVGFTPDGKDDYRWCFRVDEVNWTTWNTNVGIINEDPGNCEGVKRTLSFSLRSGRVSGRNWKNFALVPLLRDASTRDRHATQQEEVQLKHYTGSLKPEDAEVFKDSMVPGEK

On to `Cc1nc(Nc2ccccc2)c2nc(Nc3c(Cl)cccc3Cl)sc2n1` [Example 170, N^2-(2,6-Dichloro-phenyl)-5-methyl-N^7-phenyl-thiazolo[5,4-d]pyrimidine-2,7-diamine], for which the IC50 against human TRPV1 and against rat TRPV1 was > 20000 nM throughout.

For the molecule `Cc1nc(Nc2cccnc2)c2nc(Nc3c(C)cccc3C)sc2n1` [Example 171, N^2-(2,6-Dimethyl-phenyl)-5-methyl-N^7-pyridin-3-yl-thiazolo[5,4-d]pyrimidine-2,7-diamine], the IC50 against human TRPV1 was > 20000 nM; on rat TRPV1, 5320 nM.

With `Cc1cccc(C)c1Nc1nc2c(Nc3ccc(C(=O)O)cc3)ncnc2s1` [Example 172, 4-[2-(2,6-Dimethyl-phenylamino)-thiazolo[5,4-d]pyrimidin-7-ylamino]-benzoic acid], the IC50 at human TRPV1 and at rat TRPV1 was > 20000 nM throughout.

`Cc1nc(Nc2ccc(N(S(C)(=O)=O)S(C)(=O)=O)cc2)c2nc(Nc3c(Cl)cccc3Cl)sc2n1` [Example 173, N-{4-[2-(2,6-Dichloro-phenylamino)-5-methyl-thiazolo[5,4-d]pyrimidin-7-ylamino]-phenyl}-dimethanesulfonamide]: the IC50 against human TRPV1 and at rat TRPV1 was > 6670 nM each time.

As to `Cc1nc(Nc2ccc(NS(C)(=O)=O)cc2)c2nc(Nc3c(C)cccc3C)sc2n1` [Example 174, N-{4-[2-(2,6-Dimethyl-phenylamino)-5-methyl-thiazolo[5,4-d]pyrimidin-7-ylamino]-phenyl}-methanesulfonamide], the IC50 at human TRPV1 is > 20000 nM; at rat TRPV1, 7380 nM.

For `Cc1cccc(C)c1Nc1nc2c(Nc3ccc(NS(C)(=O)=O)cc3)ncnc2s1` [Example 175, N-{4-[2-(2,6-Dimethyl-phenylamino)-thiazolo[5,4-d]pyrimidin-7-ylamino]-phenyl}-methanesulfonamide], the IC50 at human TRPV1 and against rat TRPV1 was > 20000 nM each time.

As for `Cc1cccc(C)c1Nc1nc2c(Nc3ccc(C(F)(F)F)cn3)ncnc2s1` [Example 176, N^2-(2,6-Dimethyl-phenyl)-N^7-(5-trifluoromethyl-pyridin-2-yl)-thiazolo[5,4-d]pyrimidine-2,7-diamine], the IC50 at human TRPV1 and against rat TRPV1 was > 20000 nM throughout.

As for `CS(=O)(=O)c1ccc(Nc2nc(N3CCOCC3)nc3sc(Nc4c(Cl)cccc4Cl)nc23)cc1` [Example 178, N^2-(2,6-Dichloro-phenyl)-N^7-(4-methanesulfonyl-phenyl)-5-morpholin-4-yl-thiazolo[5,4-d]pyrimidine-2,7-diamine], the values for the IC50 against human TRPV1 and on rat TRPV1 were 287 nM and 60 nM, respectively.

For the molecule `FC(F)(F)c1ccc(Nc2nc(NCCN3CCCCC3)nc3sc(Nc4c(Cl)cccc4Cl)nc23)cc1` [Example 180, N^2-(2,6-Dichloro-phenyl)-N^5-(2-piperidin-1-yl-ethyl)-N^7-(4-trifluoromethyl-phenyl)-thiazolo[5,4-d]pyrimidine-2,5,7-triamine], the IC50 against human TRPV1 is 123 nM; against rat TRPV1, 32 nM.

As to `CNCCNc1nc(Nc2ccc(C(F)(F)F)cc2)c2nc(Nc3c(Cl)cccc3Cl)sc2n1` [Example 181, N^2-(2,6-Dichloro-phenyl)-N^5-(2-methylamino-ethyl)-N^7-(4-trifluoromethyl-phenyl)-thiazolo[5,4-d]pyrimidine-2,5,7-triamine], the IC50 was 6440 nM against human TRPV1 and > 20000 nM at rat TRPV1.

On to `CN(C)CCN(C)c1nc(Nc2ccc(C(F)(F)F)cc2)c2nc(Nc3c(Cl)cccc3Cl)sc2n1` [Example 182, N^2-(2,6-Dichloro-phenyl)-N^5-(2-dimethhylamino-ethyl)-methyl-N^7-(4-trifluoromethyl-phenyl)-thiazolo[5,4-d]pyrimidine-2,5,7-triamine], for which the values for the IC50 against human TRPV1 and at rat TRPV1 were 1320 nM and 1820 nM, respectively.

Regarding `CN[C@@H]1CCN(c2nc(Nc3ccc(C(F)(F)F)cc3)c3nc(Nc4c(Cl)cccc4Cl)sc3n2)C1` [Example 183, (3R)-N^2-(2,6-Dichloro-phenyl)-5-(3-methylamino-pyrrolidin-1-yl)-N^7-(4-trifluoromethyl-phenyl)-thiazolo[5,4-d]pyrimidine-2,7-diamine], the IC50 is 13600 nM at human TRPV1 and > 20000 nM against rat TRPV1.

In the case of `CS(=O)(=O)c1ccc(Nc2nc(NCC3CC3)nc3sc(Nc4c(Cl)cccc4Cl)nc23)cc1` [Example 184, N^5-Cyclopropylmethyl-N^2-(2,6-dichloro-phenyl)-N^7-(4-methanesulfonyl-phenyl)-thiazolo[5,4-d]pyrimidine-2,5,7-triamine], the IC50 worked out at 8 nM against human TRPV1 and 5 nM against rat TRPV1.

As for `CSc1ccc(Nc2nc(C)nc3sc(Nc4c(Cl)cccc4Cl)nc23)cn1` [Example 185, N^2-(2,6-Dichloro-phenyl)-5-methyl-N^7-(6-methylsulfanyl-pyridin-3-yl)-thiazolo[5,4-d]pyrimidine-2,7-diamine], the IC50 at human TRPV1 came to 31 nM; against rat TRPV1 it was 32 nM.

As to `CN1CCN(c2nc(Nc3ccc(C(F)(F)F)cc3)c3nc(Nc4c(Cl)cccc4Cl)sc3n2)CC1` [Example 187, N^2-(2,6-Dichloro-phenyl)-5-(4-methyl-piperazin-1-yl)-N^7-(4-trifluoromethyl-phenyl)-thiazolo[5,4-d]pyrimidine-2,7-diamine], the IC50 against human TRPV1 worked out at 809 nM; against rat TRPV1, 1320 nM.

Consider `CCN(CC)c1nc(Nc2ccc(C(F)(F)F)cc2)c2nc(Nc3c(Cl)cccc3Cl)sc2n1` [Example 188, N^2-(2,6-Dichloro-phenyl)-N^5,N^5-diethyl-N^7-(4-trifluoromethyl-phenyl)-thiazolo[5,4-d]pyrimidine-2,5,7-triamine], for which the IC50 came to 36 nM on human TRPV1 and 40 nM at rat TRPV1.

For the molecule `CCCCOc1nc(Nc2ccc(C(F)(F)F)cc2)c2nc(Nc3c(Cl)cccc3Cl)sc2n1` [Example 189, 5-Butoxy-N^2-(2,6-dichloro-phenyl)-N^7-(4-trifluoromethyl-phenyl)-thiazolo[5,4-d]pyrimidine-2,7-diamine], the IC50 turned out to be 19 nM on human TRPV1 and 8 nM against rat TRPV1.

With `C[C@H]1COCCN1c1nc(Nc2ccc(C(F)(F)F)cc2)c2nc(Nc3c(Cl)cccc3Cl)sc2n1` [Example 192, (3S)-N^2-(2,6-Dichloro-phenyl)-5-(3-methyl-morpholin-4-yl)-N^7-(4-trifluoromethyl-phenyl)-thiazolo[5,4-d]pyrimidine-2,7-diamine], the IC50 against human TRPV1 came to 63 nM; against rat TRPV1, 19 nM.

Consider `COC[C@@H]1CCCN1c1nc(Nc2ccc(C(F)(F)F)cc2)c2nc(Nc3c(Cl)cccc3Cl)sc2n1` [Example 193, (2S)-N^2-(2,6-Dichloro-phenyl)-5-(2-methoxymethyl-pyrrolidin-1-yl)-N^7-(4-trifluoromethyl-phenyl)-thiazolo[5,4-d]pyrimidine-2,7-diamine], for which the IC50 on human TRPV1 stood at 35 nM; at rat TRPV1 it was 36 nM.

Take `COC[C@H]1CCCN1c1nc(Nc2ccc(C(F)(F)F)cc2)c2nc(Nc3c(Cl)cccc3Cl)sc2n1` [Example 194, (2R)-N^2-(2,6-Dichloro-phenyl)-5-(2-methoxymethyl-pyrrolidin-1-yl)-N^7-(4-trifluoromethyl-phenyl)-thiazolo[5,4-d]pyrimidine-2,7-diamine]: the IC50 came to 133 nM on human TRPV1 and 125 nM at rat TRPV1.

With `CSc1ccccc1Nc1nc2c(Nc3ccc(C(F)(F)F)cc3)nc(C)nc2s1` [Example 195, 5-Methyl-N^2-(2-methylsulfanyl-phenyl)-N^7-(4-trifluoromethyl-phenyl)-thiazolo[5,4-d]pyrimidine-2,7-diamine], the IC50 was 419 nM at human TRPV1 and 319 nM against rat TRPV1.

Take `CSc1ccccc1Nc1nc2c(Nc3ccc(C(F)(F)F)cc3)ncnc2s1` [Example 196, N^2-(2-Methylsulfanyl-phenyl)-N^7-(4-trifluoromethyl-phenyl)-thiazolo[5,4-d]pyrimidine-2,7-diamine]: the IC50 on human TRPV1 worked out at 64 nM; at rat TRPV1 it was 37 nM.

In the case of `Cc1nc(Nc2ccc(C(F)(F)F)cc2)c2nc(Nc3ccccc3S(C)(=O)=O)sc2n1` [Example 197, N^2-(2-Methanesulfonyl-phenyl)-5-methyl-N^7-(4-trifluoromethylphenyl)-thiazolo[5,4-d]pyrimidine-2,7-diamine], the values for the IC50 at human TRPV1 and on rat TRPV1 were 312 nM and 287 nM, respectively.

`CS(=O)(=O)c1ccc(Nc2ncnc3sc(Nc4ccccc4S(C)(=O)=O)nc23)cc1` [Example 198, N^2-(2-Methanesulfonyl-phenyl)-N^7-(4-methanesulfonyl-phenyl)-thiazolo[5,4-d]pyrimidine-2,7-diamine]: the IC50 at human TRPV1 was 9740 nM; against rat TRPV1 it was > 20000 nM.

Regarding `CS(=O)(=O)c1ccccc1Nc1nc2c(Nc3ccc(C(F)(F)F)nc3)ncnc2s1` [Example 199, N^2-(2-Methanesulfonyl-phenyl)-N^7-(6-trifluoromethyl-pyridin-3-yl)-thiazolo[5,4-d]pyrimidine-2,7-diamine], the values for the IC50 at human TRPV1 and on rat TRPV1 were 2150 nM and 1080 nM, respectively.

For the molecule `CS(=O)(=O)c1ccccc1Nc1nc2c(Nc3ccc(S(=O)(=O)C(F)(F)F)cc3)ncnc2s1` [Example 200, N^2-(2-Methanesulfonyl-phenyl)-N^7-(4-trifluoromethanesulfonyl-phenyl)-thiazolo[5,4-d]pyrimidine-2,7-diamine], the IC50 against human TRPV1 stood at 386 nM; on rat TRPV1, 874 nM.

Consider `CS(=O)(=O)c1ccccc1Nc1nc2c(Nc3ccc(C(F)(F)F)cc3)ncnc2s1` [Example 201, N^2-(2-Methanesulfonyl-phenyl)-N^7-(4-trifluoromethyl-phenyl)-thiazolo[5,4-d]pyrimidine-2,7-diamine], for which the 50% inhibitory concentration (IC50) on human TRPV1 stood at 257 nM; on rat TRPV1, 244 nM.

What is called IC50 is the concentration needed to halve the response being measured.
